Assay results taken from ChEMBL document CHEMBL1150389, “Synthesis and evaluation of heteroaromatic 6,7-diaryl-2,3,8,8a-tetrahydroindolizin-5(1H)-ones for cytotoxicity against the HCT-116 colon cancer cell line” (Bioorg Med Chem Lett, 2008).

Test system: HCT-116
Experiment: Cytotoxicity against human HCT116 cells
Format: functional, cell-based

`CSc1ccc(C2=C(c3ccco3)C(=O)N3CCCC3C2)cc1` (stereo not drawn) was tested, and the IC50 was 3 µM.
Work on `CSc1ccc(C2=C(c3cccs3)C(=O)N3CCCC3C2)cc1` (stereo not drawn) yielded an IC50 of 0.27 µM.
With `COc1ccc(C2=C(c3ccncc3)C(=O)N3CCCC3C2)cc1` (stereo not drawn) the IC50 was 19 µM.
With `COc1ccc(C2=C(c3ccccn3)C(=O)N3CCCC3C2)cc1` (stereo not drawn) the IC50 was 104 µM.
Work on `COc1ccc(C2=C(c3ccoc3)C(=O)N3CCCC3C2)cc1` (stereo not drawn) yielded an IC50 of 3 µM.
`COc1ccc(C2=C(c3ccco3)C(=O)N3CCCC3C2)cc1` (stereo not drawn) showed an IC50 of 6 µM.
In the case of `CSc1ccc(C2=C(c3ccoc3)C(=O)N3CCCC3C2)cc1` (stereo not drawn), the IC50 is reported as 1.1 µM.
Compound `COc1ccc(C2=C(c3cccnc3)C(=O)N3CCCC3C2)cc1` (stereo not drawn) has an IC50 of 79 µM.
Work on `COc1ccc(C2=C(c3cccs3)C(=O)N3CCCC3C2)cc1` (stereo not drawn) yielded an IC50 of 5 µM.
Work on `CSc1ccc(C2=C(c3ccccc3)C(=O)N3CCCC3C2)cc1` (stereo not drawn) yielded an IC50 of 1 µM.
Work on `CSc1ccc(C2=C(c3ccncc3)C(=O)N3CCCC3C2)cc1` (stereo not drawn) yielded an IC50 of 6 µM.
For `COc1ccc(C2=C(c3ccsc3)C(=O)N3CCCC3C2)cc1` (stereo not drawn), the IC50 was 1.5 µM.
In the case of `CSc1ccc(C2=C(c3ccsc3)C(=O)N3CCCC3C2)cc1` (stereo not drawn), the IC50 is reported as 0.6 µM.
